The results in this text go back to ChEMBL document CHEMBL1143441, “New classes of Gram-positive selective antibacterials: inhibitors of MRSA and surrogates of the causative agents of anthrax and tuberculosis” (2008).

The test relates to Mycobacterium tuberculosis. Kind of test: Antimicrobial activity against Mycobacterium bovis BCG by NCCLS M7-A6 method. The class given is functional. The note with it: variant bovis BCG.

In brackets after ≈: the same amount, converted by molar mass.

Take `COc1cc(O)cc(/C=C/c2ccccc2)c1` [PINOSYLVIN METHYL ETHER]: 26 µg/mL (≈ 115 µM) was the least that counted as inhibitory (MIC).
